Laboratory results published in the kinase profiling compilation of Christmann-Franck et al. (2016).
Values joined by “and” are separate entries in the source; they are usually repeats but may differ in a detail not shown here. Equal values may be shown once. Values belong to the compound of their own block, whether it stands above or below them.

Key:
Assay in all cases: radiometric filter-binding kinase assay, Kinase HotSpot
Details in all cases: compound 0.5 µM; ATP 10 µM
[1] = biological target: FGFR3 (human) (UniProt P22607)
[2] = biological target: PLK1 (human) (UniProt P53350)
[3] = biological target: PRKG2 (human) (UniProt Q13237)
[4] = biological target: DYRK4 (human) (UniProt Q9NR20)
[5] = biological target: NEK11 (human) (UniProt Q8NG66)
[6] = biological target: NEK9 (human) (UniProt Q8TD19)
[7] = biological target: SRMS (human) (UniProt Q9H3Y6)
[8] = biological target: CAMK1D (human) (UniProt Q8IU85)
[9] = biological target: PDGFRB (human) (UniProt P09619)
[10] = biological target: TBK1 (human) (UniProt Q9UHD2)
[11] = biological target: PIM3 (human) (UniProt Q86V86)
[12] = biological target: TAOK3 (human) (UniProt Q9H2K8)
[13] = biological target: CSNK2A1 (human) (UniProt P68400)
[14] = biological target: SGK2 (human) (UniProt Q9HBY8)
[15] = biological target: TYK2 JH1 catalytic (human) (UniProt P29597)
[16] = biological target: CSNK1D (human) (UniProt P48730)
[17] = biological target: LYN (human) (UniProt P07948)
[18] = biological target: CAMKK2 (human) (UniProt Q96RR4)
[19] = biological target: ROS1 (human) (UniProt P08922)
[20] = biological target: NEK1 (human) (UniProt Q96PY6)
[21] = biological target: EPHA2 (human) (UniProt P29317)
[22] = biological target: CSNK1G2 (human) (UniProt P78368)
[23] = biological target: MAPK11 (human) (UniProt Q15759)
[24] = biological target: SYK (human) (UniProt P43405)
[25] = biological target: ULK2 (human) (UniProt Q8IYT8)
[26] = biological target: GRK6 (human) (UniProt P43250)
[27] = biological target: HIPK1 (human) (UniProt Q86Z02)
[28] = biological target: MST1R (human) (UniProt Q04912)
[29] = biological target: PAK6 (human) (UniProt Q9NQU5)
[30] = biological target: SLK (human) (UniProt Q9H2G2)
[31] = biological target: RPS6KB1 (human) (UniProt P23443)
[32] = biological target: MAPK14 (human) (UniProt Q16539)
[33] = biological target: LIMK1 (human) (UniProt P53667)
[34] = biological target: CAMKK1 (human) (UniProt Q8N5S9)
[35] = biological target: LTK (human) (UniProt P29376)
[36] = biological target: RPS6KA6 KD1 KD2 (human) (UniProt Q9UK32)
[37] = biological target: TGFBR1 (human) (UniProt P36897)
[38] = biological target: ROCK2 (human) (UniProt O75116)
[39] = biological target: CAMK1G (human) (UniProt Q96NX5)
[40] = biological target: PRKCA (human) (UniProt P17252)
[41] = biological target: PAK3 (human) (UniProt O75914)
[42] = biological target: PRKCH (human) (UniProt P24723)
Sequence of PRKCH (human) (P24723 whole entry, looked up): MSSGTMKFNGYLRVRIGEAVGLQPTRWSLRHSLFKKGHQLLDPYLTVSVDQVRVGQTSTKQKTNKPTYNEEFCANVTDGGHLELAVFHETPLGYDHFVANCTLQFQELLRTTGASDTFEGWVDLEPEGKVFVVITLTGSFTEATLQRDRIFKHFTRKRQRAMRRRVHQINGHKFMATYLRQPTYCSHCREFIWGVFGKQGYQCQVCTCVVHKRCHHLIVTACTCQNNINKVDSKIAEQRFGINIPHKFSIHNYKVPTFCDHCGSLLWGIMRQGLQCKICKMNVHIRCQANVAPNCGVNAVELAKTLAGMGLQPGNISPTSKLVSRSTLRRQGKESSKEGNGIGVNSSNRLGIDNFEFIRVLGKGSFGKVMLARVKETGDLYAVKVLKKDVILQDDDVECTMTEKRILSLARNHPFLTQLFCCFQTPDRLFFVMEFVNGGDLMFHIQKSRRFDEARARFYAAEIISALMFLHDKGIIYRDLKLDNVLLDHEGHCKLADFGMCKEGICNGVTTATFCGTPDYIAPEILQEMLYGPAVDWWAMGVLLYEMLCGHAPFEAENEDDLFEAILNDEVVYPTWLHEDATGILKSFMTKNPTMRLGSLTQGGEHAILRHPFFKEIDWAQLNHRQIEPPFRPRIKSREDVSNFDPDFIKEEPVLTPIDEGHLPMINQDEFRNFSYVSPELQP

Sequence of FGFR3 (human) (P22607 whole entry, looked up): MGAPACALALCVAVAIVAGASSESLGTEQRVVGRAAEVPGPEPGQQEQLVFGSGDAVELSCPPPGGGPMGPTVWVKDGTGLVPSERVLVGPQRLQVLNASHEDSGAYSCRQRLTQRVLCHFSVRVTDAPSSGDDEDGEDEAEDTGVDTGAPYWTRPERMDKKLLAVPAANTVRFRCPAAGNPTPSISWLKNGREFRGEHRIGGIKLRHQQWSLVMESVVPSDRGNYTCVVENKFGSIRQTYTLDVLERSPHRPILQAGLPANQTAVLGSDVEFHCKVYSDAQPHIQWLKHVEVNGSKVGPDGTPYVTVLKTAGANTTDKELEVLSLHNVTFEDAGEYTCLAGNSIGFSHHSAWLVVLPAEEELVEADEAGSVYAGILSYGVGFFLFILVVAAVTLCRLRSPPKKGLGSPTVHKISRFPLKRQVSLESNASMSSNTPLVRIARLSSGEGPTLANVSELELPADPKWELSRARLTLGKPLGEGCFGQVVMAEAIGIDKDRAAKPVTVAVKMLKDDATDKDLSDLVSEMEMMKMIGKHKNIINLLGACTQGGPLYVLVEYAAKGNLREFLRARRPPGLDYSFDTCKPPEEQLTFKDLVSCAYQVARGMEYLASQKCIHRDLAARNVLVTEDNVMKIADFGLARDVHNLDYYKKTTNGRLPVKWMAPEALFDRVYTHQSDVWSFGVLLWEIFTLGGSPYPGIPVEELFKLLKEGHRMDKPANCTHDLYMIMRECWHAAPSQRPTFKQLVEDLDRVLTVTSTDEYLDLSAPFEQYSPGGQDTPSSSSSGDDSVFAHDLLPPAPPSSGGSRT
Sequence of CAMK1G (human) (Q96NX5 whole entry, looked up): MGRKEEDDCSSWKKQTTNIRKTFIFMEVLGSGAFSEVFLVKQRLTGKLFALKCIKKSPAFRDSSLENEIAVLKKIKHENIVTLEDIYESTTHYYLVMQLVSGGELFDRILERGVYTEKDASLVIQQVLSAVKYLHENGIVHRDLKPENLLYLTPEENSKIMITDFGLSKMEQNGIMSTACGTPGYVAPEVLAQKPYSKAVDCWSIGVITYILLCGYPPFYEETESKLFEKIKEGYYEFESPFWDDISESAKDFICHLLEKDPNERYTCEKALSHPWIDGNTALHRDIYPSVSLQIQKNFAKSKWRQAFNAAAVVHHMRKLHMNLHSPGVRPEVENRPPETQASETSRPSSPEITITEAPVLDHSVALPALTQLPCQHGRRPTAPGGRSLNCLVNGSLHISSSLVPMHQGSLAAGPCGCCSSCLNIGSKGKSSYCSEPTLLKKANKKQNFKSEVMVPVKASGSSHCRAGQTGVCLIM
Sequence of CSNK1G2 (human) (P78368 whole entry, looked up): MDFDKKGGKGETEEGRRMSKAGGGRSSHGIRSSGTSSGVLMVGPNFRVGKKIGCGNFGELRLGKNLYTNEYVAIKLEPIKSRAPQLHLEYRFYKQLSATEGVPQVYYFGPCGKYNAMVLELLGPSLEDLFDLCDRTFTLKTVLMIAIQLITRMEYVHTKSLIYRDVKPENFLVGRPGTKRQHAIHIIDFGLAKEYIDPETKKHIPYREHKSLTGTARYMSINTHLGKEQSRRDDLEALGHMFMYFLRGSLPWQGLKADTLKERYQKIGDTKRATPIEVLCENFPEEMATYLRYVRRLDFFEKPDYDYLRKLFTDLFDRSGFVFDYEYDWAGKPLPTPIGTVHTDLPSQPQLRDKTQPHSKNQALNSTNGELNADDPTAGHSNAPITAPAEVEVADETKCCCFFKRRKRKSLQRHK
Sequence of MST1R (human) (Q04912 whole entry, looked up): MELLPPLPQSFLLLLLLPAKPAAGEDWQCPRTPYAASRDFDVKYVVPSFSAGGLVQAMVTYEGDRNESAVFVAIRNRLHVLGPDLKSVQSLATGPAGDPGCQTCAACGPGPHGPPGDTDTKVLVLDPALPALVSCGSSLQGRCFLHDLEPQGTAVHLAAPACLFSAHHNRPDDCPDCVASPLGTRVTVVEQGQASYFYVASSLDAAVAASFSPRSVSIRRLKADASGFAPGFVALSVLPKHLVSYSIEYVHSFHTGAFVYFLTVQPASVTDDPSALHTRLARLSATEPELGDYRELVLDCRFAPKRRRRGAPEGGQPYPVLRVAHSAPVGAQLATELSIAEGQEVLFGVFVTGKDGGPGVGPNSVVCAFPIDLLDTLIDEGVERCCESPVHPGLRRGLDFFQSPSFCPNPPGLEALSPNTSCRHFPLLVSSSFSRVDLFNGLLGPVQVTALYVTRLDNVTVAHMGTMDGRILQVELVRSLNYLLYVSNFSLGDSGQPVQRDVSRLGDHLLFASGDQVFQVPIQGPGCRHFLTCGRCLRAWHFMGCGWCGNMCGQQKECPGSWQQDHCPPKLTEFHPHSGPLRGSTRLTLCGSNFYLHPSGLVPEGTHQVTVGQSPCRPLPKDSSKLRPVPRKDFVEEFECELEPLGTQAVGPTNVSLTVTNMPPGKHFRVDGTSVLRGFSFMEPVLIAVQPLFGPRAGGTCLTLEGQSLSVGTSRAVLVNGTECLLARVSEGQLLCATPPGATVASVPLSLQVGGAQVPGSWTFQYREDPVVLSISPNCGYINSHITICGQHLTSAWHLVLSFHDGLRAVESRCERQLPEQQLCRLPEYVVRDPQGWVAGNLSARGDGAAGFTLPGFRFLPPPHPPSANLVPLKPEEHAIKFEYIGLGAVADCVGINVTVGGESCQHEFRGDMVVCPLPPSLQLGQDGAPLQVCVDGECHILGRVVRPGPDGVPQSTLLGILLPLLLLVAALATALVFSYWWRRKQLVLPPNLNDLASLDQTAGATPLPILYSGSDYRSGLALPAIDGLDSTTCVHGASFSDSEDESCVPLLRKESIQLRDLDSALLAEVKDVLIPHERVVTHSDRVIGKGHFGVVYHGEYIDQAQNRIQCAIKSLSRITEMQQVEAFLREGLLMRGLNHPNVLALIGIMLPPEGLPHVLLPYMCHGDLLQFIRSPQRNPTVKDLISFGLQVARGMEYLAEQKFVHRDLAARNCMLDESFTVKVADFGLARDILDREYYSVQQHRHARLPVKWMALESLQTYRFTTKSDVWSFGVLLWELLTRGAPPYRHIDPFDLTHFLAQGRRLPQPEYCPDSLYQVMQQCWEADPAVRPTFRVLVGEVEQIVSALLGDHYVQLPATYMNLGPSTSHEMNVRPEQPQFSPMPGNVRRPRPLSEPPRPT
Sequence of GRK6 (human) (P43250 whole entry, looked up): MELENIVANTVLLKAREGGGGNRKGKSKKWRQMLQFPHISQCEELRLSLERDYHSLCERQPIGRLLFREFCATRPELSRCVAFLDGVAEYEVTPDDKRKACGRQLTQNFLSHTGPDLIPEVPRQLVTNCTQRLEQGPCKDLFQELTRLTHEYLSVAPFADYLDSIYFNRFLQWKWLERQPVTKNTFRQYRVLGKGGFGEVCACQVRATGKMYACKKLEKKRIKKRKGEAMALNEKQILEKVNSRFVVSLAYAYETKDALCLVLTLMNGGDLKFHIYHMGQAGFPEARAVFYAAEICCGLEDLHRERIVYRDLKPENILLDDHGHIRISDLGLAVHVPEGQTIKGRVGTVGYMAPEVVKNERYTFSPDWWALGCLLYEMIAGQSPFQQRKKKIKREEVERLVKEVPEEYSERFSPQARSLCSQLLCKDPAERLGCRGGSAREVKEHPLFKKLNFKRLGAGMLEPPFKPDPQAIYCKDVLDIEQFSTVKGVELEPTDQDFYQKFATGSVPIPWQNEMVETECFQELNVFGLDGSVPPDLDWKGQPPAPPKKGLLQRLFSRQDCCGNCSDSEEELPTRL
Sequence of MAPK11 (human) (Q15759 whole entry, looked up): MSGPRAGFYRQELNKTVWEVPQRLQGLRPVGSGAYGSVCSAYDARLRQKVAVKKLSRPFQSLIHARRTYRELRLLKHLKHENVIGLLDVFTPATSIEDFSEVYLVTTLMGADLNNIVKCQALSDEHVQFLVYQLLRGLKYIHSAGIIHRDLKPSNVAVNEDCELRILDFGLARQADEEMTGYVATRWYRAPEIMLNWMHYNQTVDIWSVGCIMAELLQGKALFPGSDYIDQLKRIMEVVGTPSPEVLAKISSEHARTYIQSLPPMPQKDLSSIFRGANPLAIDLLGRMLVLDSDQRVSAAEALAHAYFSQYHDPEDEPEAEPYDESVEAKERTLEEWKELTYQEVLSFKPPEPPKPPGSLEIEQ

Compound: CC(=O)c1ccc(N2CCOCC2)cc1O
residual activity [1]: 105%
residual activity [2]: 94.3%
residual activity [3]: 107%
residual activity [4]: 95.6%
residual activity [5]: 98.6%
residual activity [6]: 93.9%
residual activity [7]: 94.7%
residual activity [8]: 96.9%
residual activity [9]: 105%
residual activity [10]: 99.1%
residual activity [11]: 115%
residual activity [12]: 98.4%
residual activity [13]: 101%
residual activity [14]: 101%
residual activity [15]: 110%
residual activity [16]: 100%
residual activity [17]: 106% and 98.8%
residual activity [18]: 115%
residual activity [19]: 102%
residual activity [20]: 114%
residual activity [21]: 107%
residual activity [22]: 102%
residual activity [23]: 99.8%
residual activity [24]: 92.6%
residual activity [25]: 114%
residual activity [26]: 100%
residual activity [27]: 93.9%
residual activity [28]: 104%
residual activity [29]: 93.7%
residual activity [30]: 105%
residual activity [31]: 95.2%
residual activity [32]: 97.1%
residual activity [33]: 93.6%
residual activity [34]: 124%
residual activity [35]: 102%
residual activity [36]: 95.1%
residual activity [37]: 96.6%
residual activity [38]: 94.7%
residual activity [39]: 101%
residual activity [40]: 73.4%
residual activity [41]: 93.9%
residual activity [42]: 99.3%

Compound: CO[C@H]1CC2CC[C@@H](C)[C@@](O)(O2)C(=O)C(=O)N2CCCC[C@H]2C(=O)OC([C@H](C)C[C@@H]2CC[C@@H](O)[C@H](OC)C2)CC(=O)[C@H](C)/C=C(\C)[C@@H](O)[C@@H](OC)C(=O)[C@H](C)C[C@H](C)/C=C/C=C/C=C/1C (stereo partly drawn)
residual activity [1]: 102%
residual activity [2]: 97.8%
residual activity [3]: 91.9%
residual activity [4]: 99.8%
residual activity [5]: 73.6%
residual activity [6]: 98.2%
residual activity [7]: 108%
residual activity [8]: 105%
residual activity [9]: 108%
residual activity [10]: 94.7%
residual activity [11]: 106%
residual activity [12]: 106%
residual activity [13]: 94.7%
residual activity [14]: 101%
residual activity [15]: 107%
residual activity [16]: 110%
residual activity [17]: 100% and 105%
residual activity [18]: 115%
residual activity [19]: 85%
residual activity [20]: 104%
residual activity [21]: 107%
residual activity [22]: 94.8%
residual activity [23]: 113%
residual activity [24]: 97.1%
residual activity [25]: 120%
residual activity [26]: 103%
residual activity [27]: 99.1%
residual activity [28]: 97%
residual activity [29]: 112%
residual activity [30]: 98.7%
residual activity [31]: 92.6%
residual activity [32]: 99.1%
residual activity [33]: 89.8%
residual activity [34]: 118%
residual activity [35]: 107%
residual activity [36]: 118%
residual activity [37]: 99.5%
residual activity [38]: 108%
residual activity [39]: 93%
residual activity [40]: 108%
residual activity [41]: 102%
residual activity [42]: 104%

Compound: CNC(=O)c1cc(Oc2ccc(NC(=O)Nc3ccc(Cl)c(C(F)(F)F)c3)cc2)ccn1
residual activity [1]: 89.5%
residual activity [2]: 98.1%
residual activity [3]: 90.9%
residual activity [4]: 105%
residual activity [5]: 105%
residual activity [6]: 95.4%
residual activity [7]: 107%
residual activity [8]: 103%
residual activity [9]: 12%
residual activity [10]: 98.6%
residual activity [11]: 100%
residual activity [12]: 63.5%
residual activity [13]: 108%
residual activity [14]: 103%
residual activity [15]: 98.9%
residual activity [16]: 103%
residual activity [17]: 88.1% and 98.8%
residual activity [18]: 103%
residual activity [19]: 95.7%
residual activity [20]: 88.8%
residual activity [21]: 83.8%
residual activity [22]: 88.9%
residual activity [23]: 46.9%
residual activity [24]: 101%
residual activity [25]: 106%
residual activity [26]: 107%
residual activity [27]: 99.7%
residual activity [28]: 97.6%
residual activity [29]: 104%
residual activity [30]: 96.8%
residual activity [31]: 91.4%
residual activity [32]: 40.2%
residual activity [33]: 76.8%
residual activity [34]: 103%
residual activity [35]: 99.9%
residual activity [36]: 97.3%
residual activity [37]: 94.1%
residual activity [38]: 101%
residual activity [39]: 107%
residual activity [40]: 96.8%
residual activity [41]: 103%
residual activity [42]: 107%

residual activity [1]: 74.1%
residual activity [2]: 96.9%
residual activity [3]: 104%
residual activity [4]: 96.1%
residual activity [5]: 103%
residual activity [7]: 104%
residual activity [8]: 138%
residual activity [9]: 76.4%
residual activity [10]: 60.4%
residual activity [11]: 106%
residual activity [12]: 61.5%
residual activity [13]: 78.8%
residual activity [14]: 103%
residual activity [15]: 75.1%
residual activity [16]: 83.5%
residual activity [17]: 39.1% and 53.3%
residual activity [18]: 75.2%
residual activity [19]: 69.6%
residual activity [20]: 23.5%
residual activity [21]: 97.8%
residual activity [22]: 99.7%
residual activity [23]: 103%
residual activity [24]: 96.7%
residual activity [25]: 16.8%
residual activity [26]: 89.7%
residual activity [27]: 104%
residual activity [28]: 103%
residual activity [29]: 108%
residual activity [30]: 13.6%
residual activity [31]: 83.7%
residual activity [32]: 86.2%
residual activity [33]: 87.9%
residual activity [34]: 93.3%
residual activity [35]: 45.5%
residual activity [36]: 67.8%
residual activity [37]: 103%
residual activity [38]: 58.2%
residual activity [39]: 92.5%
residual activity [40]: 91.9%
residual activity [41]: 93.5%
residual activity [42]: 88.7%
Compound: Cc1[nH]c(/C=C2\C(=O)Nc3ccc(S(=O)(=O)N(C)c4cccc(Cl)c4)cc32)c(C)c1C(=O)N1CCN(C)CC1
residual activity [6]: 92.5%
